Test results from US9005575B2, “Arg-Gly-Asp-conjugated alpha-melanocyte stimulating hormone hybrid peptide for use in diagnosing and treating melanoma, including metastatic melanoma and methods related to same” (STC.UNM, priority 2009, dated 2015).
Read-outs that look alike come from different tables or passages of the source. Positions of bridges follow the written chain, without caps; N, C: chain ends. Non-standard residues stand in square brackets, D forms with d. Residues, ends and D or L forms follow the SMILES beside them.

Legend:
[1] = target: T1, MC1 receptor (Mus musculus, UniProt Q01727); assay: In vitro competitive binding assay in B16/F1 melanoma cells; design: species or system murine; details: competition with ^125I-(Tyr^2)-NDP-MSH, 25° C., 2 h, read-out: IC50 value (MC1 receptor binding affinity)
T1 construct: host or cells: B16/F1 murine melanoma cells
T1 sequence (Q01727 whole entry): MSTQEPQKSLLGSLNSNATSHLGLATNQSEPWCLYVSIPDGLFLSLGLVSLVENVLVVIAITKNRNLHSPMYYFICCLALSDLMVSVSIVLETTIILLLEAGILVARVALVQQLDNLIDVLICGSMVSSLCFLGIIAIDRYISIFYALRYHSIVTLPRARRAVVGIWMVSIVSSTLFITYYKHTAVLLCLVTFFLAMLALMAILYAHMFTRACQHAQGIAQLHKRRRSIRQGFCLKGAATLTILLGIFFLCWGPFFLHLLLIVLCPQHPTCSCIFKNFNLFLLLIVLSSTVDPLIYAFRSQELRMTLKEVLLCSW
Protocol: The IC50 value of RGD-Lys-(Arg^11)CCMSH was determined according to our previously published procedure (27). B16/F1 cells were harvested and seeded into a 24-well cell culture plate (5×10^5/well) and incubated at 37° C. overnight. After being washed with binding media (MEM with 25 mM HEPES, pH 7.4, 0.2% BSA, 0.3 mM 1,10-phenathroline), the cells were incubated at room temperature (25° C.) for 2 h with approximately 40,000 counts per minute (cpm) of ^125I-(Tyr^2)-NDP-MSH in the presence of increasing concentrations (10^−12 to 10^−5 M) of RGD-Lys-(Arg^11)CCMSH in 0.3 ml of binding media. The reaction media were aspirated after the incubation. […] The activities associated with cells were measured in a Wallac 1480 automated gamma counter (PerkinElmer, NJ). The IC50 value for the peptide was calculated by fitting the data with nonlinear regression using Prism software (GraphPad Software, La Jolla, Calif.).
The IC50 value of RGD-Arg-(Arg^11)CCMSH was determined according to our previously published procedure (17). […] The activities associated with cells were measured in a Wallac 1480 automated gamma counter (PerkinElmer, NJ). The IC50 value for the peptide was calculated using Prism software (GraphPad Software, La Jolla, Calif.).

[2] = tested on: B16/F1 murine melanoma cells; assay: Specificity of cellular uptake (peptide blockade); format: cell-based; details: 0.1 μM of blocking peptide, 25° C., 120 min
Protocol: The specificity of cell binding was determined by incubating ^99mTc-RGD-Lys-(Arg^11)CCMSH with or without non-radioactive peptides. After being washed once with binding media, B16/F1 cells in 24-well cell culture plates were incubated with approximately 200,000 cpm of HPLC purified ^99mTc-RGD-Lys-(Arg^11)CCMSH at 25° C. for 120 min (n=4) in the presence of 0.1 μM of RGD-Lys-(Arg^11)CCMSH, NDP-MSH, (Arg^11)CCMSH or RGD in 0.5 ml of binding media, respectively. The reaction media were aspirated after the incubation. The cells were rinsed twice with 0.5 ml of ice-cold pH 7.4, 0.2% BSA/0.01 M PBS and lysed in 0.5 ml of 1 N NaOH for 5 min. The activities associated with cells were measured in a gamma counter. Statistical analysis was performed using the Student's t-test for unpaired data.
The specificity of cellular uptake was determined by incubating ^99mTc-RGD-Arg-(Arg^11)CCMSH with or without non-radioactive peptides. After being washed once with binding medium, B16/F1 cells in 24-well cell culture plates were incubated with approximately 200,000 cpm of HPLC purified ^99mTc-RGD-Arg-(Arg^11)CCMSH at 25° C. for 120 min (n=3) in the presence of 0.1 μM of RGD-Arg-(Arg^11)CCMSH, (Arg^11)CCMSH, RGD or no peptide blockade in 0.5 mL of binding medium, respectively. The reaction medium was aspirated after the incubation. The cells were rinsed twice with 0.5 mL of ice-cold pH 7.4, 0.2% BSA/0.01 M PBS and lysed in 0.5 mL of 1 N NaOH for 5 min. The activities associated with cells were measured in a gamma counter.

[3] = tested on: B16/F1 melanoma cells; assay: Clonogenic cytotoxicity; format: cell-based, murine; details: 6 days post the treatment; for Decrease in clonogenic survival compared to untreated group: 0.1 μM (100 nM), 3 h incubation
Protocol: To determine whether the replacement of the Lys linker with Arg linker affected the clonogenic cytotoxicity of the hybrid peptide, we examined the clonogenic cytotoxic effect of RGD-Arg-(Arg^11)CCMSH in B16/F1 melanoma cells according to our published procedure (17). The B16/F1 cells were seeded in a 6-well plate (200 cells/well) and incubated at 37° C. overnight. […] Control cells were only incubated in the culture medium. After the incubation, the cells were washed with PBS twice and allowed to form colonies over 6 days in the culture medium. The medium was changed every other day. After 6 days, the cells were fixed with methanol:glacial acetic acid (3:1), stained with hematoxylin and visually examined under microscope for survival. Colonies contained more than 50 cells were scored as survivors.

[4] = target: T1, MC1 receptor; details: literature value (ref. 8); read-out: MC1 receptor binding affinity; cited from earlier work

IC50 [1] | Compound | Decrease of cellular uptake of ^99mTc-RGD-Arg-(Arg^11)CCMSH by peptide blockade [2] | Decrease in clonogenic survival compared to untreated group [3] | Decrease of clonogenic survival compared to untreated control ([3]; 93 μmol, single treatment (3 h incubation), unpublished preliminary studies) | Decrease of cellular uptake of ^99mTc-RGD-Lys-(Arg^11)CCMSH by peptide blockade [2] | IC50 [4]
0.7 nM | CC(C)[C@H](NC(=O)[C@@H]1CCCN1C(=O)[C@H](CCCNC(=N)N)NC(=O)[C@H](CS)NC(=O)[C@H](Cc1c[nH]c2ccccc12)NC(=O)[C@H](CCCNC(=N)N)NC(=O)[C@@H](Cc1ccccc1)NC(=O)[C@H](Cc1c[nH]cn1)NC(=O)[C@H](CCC(=O)O)NC(=O)[C@H](CS)NC(=O)[C@H](CS)NC(=O)[C@H](CCCNC(=N)N)NC(=O)[C@@H]1CC(=O)N[C@@H](CCCNC(=N)N)C(=O)NCC(=O)N[C@@H](CC(=O)O)C(=O)N[C@H](Cc2ccc(O)cc2)C(=O)N1)C(N)=O [RGD-Arg-(Arg^11)CCMSH] (RGD[dY]DRCCEH[dF]RWCRPV-NH2; lactam N-5; C-terminus assumed) | 76% | 62% | – | – | –
– | CC(C)[C@H](NC(=O)[C@@H]1CCCN1C(=O)[C@H](CCCNC(=N)N)NC(=O)[C@H](CS)NC(=O)[C@H](Cc1c[nH]c2ccccc12)NC(=O)[C@H](CCCNC(=N)N)NC(=O)[C@@H](Cc1ccccc1)NC(=O)[C@H](Cc1c[nH]cn1)NC(=O)[C@H](CCC(=O)O)NC(=O)[C@H](CS)NC(=O)[C@H](CS)NC(=O)[C@H](CCCCN)NC(=O)[C@@H]1CC(=O)N[C@@H](CCCNC(=N)N)C(=O)NCC(=O)N[C@@H](CC(=O)O)C(=O)N[C@H](Cc2ccc(O)cc2)C(=O)N1)C(N)=O [RGD-Lys-(Arg^11)CCMSH] (RGD[dY]DKCCEH[dF]RWCRPV-NH2; lactam N-5; C-terminus assumed) | – | – | 65% | – | –
– | Cyclo(Arg-Gly-Asp-DPhe-Val) [RGD, reference compound] | didn't reduce | 7% | – | didn't reduce | –
– | [Cys^3,4,10, D-Phe^7, Arg^11]α-MSH3-13 [(Arg^11)CCMSH, reference compound] | 78% | 11% | – | – | 1.7 nM
